From US11197873B2, “Azolium salts for treatment of non-muscle invasive bladder cancer” (The University of Akron, priority 2019, dated 2021)

Assays:
Assay type in all cases: cell-based, human
[1] = system: RT4 cell line; assay: Relative survival at varying concentration and exposure time, 24 h recovery; conditions: 5 min exposure time
Procedure: (§1) FIG. 4 provides the relative survival of RT4 cells in part A and RT112 cells in part B that were treated with varying concentrations of III for different exposure times followed by a 24 h recovery.
(§2) Select bladder cancer cell lines were seeded at 10,000 cells/well in black-walled 96 well plates and incubated for 24 h. Cells were treated with compound in their respective media (as recommended by ATCC) at concentrations of 500 to 7.8 μM dissolved in two-fold dilution increments or vehicle for 1 h, followed by replacement of treatment media with normal growth media. After 24 h, plates with cells were incubated at room temperature for 30 min, followed by the addition of 20 μL of CellTiter-Glo® luminescent cell viability assay reagent (Promega) and mixing. After 2 min of incubation at room temperature, luminescence for each plate was measured using IVIS. Relative survival for each treatment group was calculated using vehicle control. All treatments were performed in quadruplicate.

[2] = system: RT112 cell line; assay: as above; conditions: 5 min exposure time
Procedure: as §1
Select bladder cancer cell lines were seeded at 10,000 cells/well in black-walled 96 well plates and incubated for 24 h. […] After 24 h, plates with cells were incubated at room temperature for 30 min, followed by the addition of 20 μL of CellTiter-Glo® luminescent cell viability assay reagent (Promega) and mixing. After 2 min of incubation at room temperature, luminescence for each plate was measured using IVIS. Relative survival for each treatment group was calculated using vehicle control. All treatments were performed in quadruplicate.

[3] = system: bladder cancer cell lines; assay: CellTiter-Glo assay, growth inhibition at 1 h exposure
Procedure: as §2

CN1/C(=C/C=C/c2n(Cc3ccc4ccccc4c3)c(Cl)c(Cl)[n+]2Cc2ccc3ccccc3c2)Oc2ccccc21.[Cl-] [III, 4,5-dichloro-2-((1E,3Z)-3-(3-methylbenzoxazol-2(3H)-ylidene)prop-1-en-1-yl)-1,3-bis(naphthalen-2-ylmethyl)-1H-imidazolium chloride] was tested, and the “concentration that inhibits cell survival” value [1] was 10 µM, the “concentration that inhibits cell survival” value [2] was 40 µM and the “GI50 compared with both triphenylphosphonium compounds” value [3] was “extremely lower GI50 concentrations”.
